Test results: patent US20170209547A1, “N[…] USE IN […] AND ANXIETY IN PETS” (DOMES PHARMA, priority 2016, published 2017)

System: male Wistar Han rats
Experiment: EDC test (anxiety test with electric probe burying), global anxiety score
Type: in vivo, rat
Details: Diazepam 3 mg/kg p.o. 60 min before the test
Description: Forty male Wistar Han rats (Crl:WI(Han), Charles River Laboratories, L'Arbresle, France), weighing from 250 to 275 g were used. Upon receipt, the rats were marked and split into groups of 3 or 4 animals in polycarbonate cages (Eurostandard type IIIH, 425×266×185 mm, Tecniplast, Lyon, France). The animals were housed in a climate-controlled animal house, at a temperature of […] and relative humidity of 50±20%. The rats had food (Teklad Global 2016, Harlan, Ganat, France) and drink ad libitum and were held in a day-night cycle inverted by 12 hours (day from 20:00 to 08:00). […]
The experimental device was placed in a room lit with a low intensity red light. A video camera connected to a digital recorder saved all behavioral sequences so that behavior of interest could be measured later. […]
The electric probe was inserted into the cage before the start of the test. […] After the electric shock, the rat's behavior was recorded for 5 min. […]
The following behaviors were quantified from video recordings made during the tests: • duration probe was buried; • number of stretches in the direction of the probe; • number of approaches to the probe; • number of flights from the probe. […]

How did the “Global anxiety score vs. vehicle group (Mann-Whitney test)” value turn out when CN1C(=O)CN=C(c2ccccc2)c2cc(Cl)ccc21 [Diazepam] was run?
The value was “significantly lower”.

And the “Global anxiety score, Median” value (n = 9, Vehicle median 111)?
Its value is 41.
